“Also recorded” adds a separate entry of the source.
Legend:
[1] = system: HTR-8/SV neo trophoblast cells; assay: Blot of protein expression in trophoblast cell lysates under hypoxic conditions; format: cell-based; details: 5 μM, 10 μM and 30 μM 2-ME
Protocol: FIG. 5 is a blot showing that 2-methoxyestradiol treatment of HTR-8/SV neo trophoblast cells downregulations HIF-1α, VEGF165, Flt-1, and sFlt-1 expression in cell lysates under hypoxic conditions.
(§1) We have shown that 5 μM, 10 μM and 30 μM of 2-ME can reduce the secreted levels of VEGF up to 75% in a dose dependent manner in a placenta cytotrophoblast cell line (HTR) under hypoxia. […] Similarly, 5 μM, 10 μM and 30 μM of 2-ME can reduce the secreted sFLT-1 levels by up to 50% or more in a dose dependent manner in the same cell lines under hypoxia (see FIGS. 1-3).

BeWo cells = assay: Secretion of VEGF, sFLT-1 and PlGF by BeWo cytotrophoblast cell line under hypoxia; format: cell-based; details: 5 μM, 10 μM and 30 μM 2-ME
[2] = system: tumor and non-tumor cell lines; details: wide variety of tumor and non-tumor cell lines; cited from earlier work
[3] = system: cytotrophoblasts from the placenta; assay: Expression of HIF-1α and angiogenic factors in cytotrophoblasts from the placenta (summary statement); format: cell-based
HIF-1 = details: cited from earlier work
[4] = administered orally; cited from earlier work
[5] = system: placenta cytotrophoblast cell line (HTR); assay: Secretion of VEGF, sFLT-1 and PlGF by HTR cytotrophoblast cell line under hypoxia; format: cell-based
Protocol: as §1

sFLT-1 and VEGF = assay: Blood levels of sFLT-1 and VEGF in normal mice treated with 2-ME; format: in vivo; details: twice daily 30 μM 2-ME, blood samples
Protocol: Normal mice were treated with 2-ME twice daily with 30 μM of 2-ME. Blood samples were then obtained and assayed for the level of sFLT-1 and VEGF. […] The 30 μM concentration represents approximately the normal physiological level of 2-ME that is found in the blood of pregnant women in the late second trimester or early third trimester through the end of pregnancy. At the end of a pregnancy, levels of 2-ME in non-preeclamptic subjects drops back to non pregnant levels, which are approximately 1-5 μM.

[6] = 5 μM, 10 μM and 30 μM 2-ME, dose dependent, HTR cell line, hypoxia

COc1cc2c(cc1O)CC[C@@H]1[C@@H]2CC[C@]2(C)[C@@H](O)CC[C@@H]12 [2-ME, 2-methoxyestradiol]
expression level of Flt-1 in cell lysates [1]: downregulated
expression level of HIF-1α in cell lysates [1]: downregulated
expression level of VEGF165 in cell lysates [1]: downregulated
expression level of sFlt-1 in cell lysates [1]: downregulated
expression level of Flt-1 in cell lysates ([1]; listed as 2-methoxyestradiol): downregulations
expression level of HIF-1α in cell lysates ([1]; listed as 2-methoxyestradiol): downregulations
expression level of VEGF165 in cell lysates ([1]; listed as 2-methoxyestradiol): downregulations
expression level of sFlt-1 in cell lysates ([1]; listed as 2-methoxyestradiol): downregulations
PlGF secretion levels (BeWo cells): reduce PlGF secretion levels in a dose dependent manner
reduction of secreted sFLT-1 levels (BeWo cells; dose dependent): ≥ 50%
anti-proliferative activity [2]: potent
apoptosis [2]: induces apoptosis
expression of HIF-1α [3]: decreases
expression of VEGF, PlGF, VEGF Receptor 1 (VEGFR1) and sFLT-1 [3]: dramatic decrease
HIF-1 induced transcriptional activation of VEGF expression (HIF-1): inhibits
HIF-1 level (HIF-1; posttranscriptional level): downregulate
antitumor and antiangiogenic activity [4]: exhibits antitumor and antiangiogenic activity
toxicity [4]: little or no toxicity
PlGF secretion levels ([5]; 5 μM, 10 μM and 30 μM 2-ME, HTR cell line, hypoxia): reduce PlGF secretion levels in a dose dependent manner
PlGF secretion levels ([5]; 5 μM, 10 μM and 30 μM 2-ME, HTR cell line, hypoxia, listed as 2-methoxyestradiol): reduction of PlGF secretion
reduction of secreted levels of VEGF [5, 6]: up to 75%
reduction of secreted sFLT-1 levels [5, 6]: ≥ 50%
sFLT-1 production / secretion ([5]; HTR / HTR-8/SV neo cells): reduction of sFLT-1 production
secretion of VEGF ([5]; HTR / HTR-8/SV neo cells): reduces secretion of VEGF; also recorded: reduction
bound VEGF (sFLT-1 and VEGF): decrease in bound VEGF
reduction in sFLT-1 expression (sFLT-1 and VEGF): 50%
